US5091389A, “Lipophilic macrolide useful as an immunosuppressant” (Merck & Co., Inc., priority 1991, dated 1992)

Key:
mouse T cells = experiment: Inhibition of T-cell proliferation (mouse T cells stimulated with ionomycin + PMA, tritiated-thymidine incorporation); type: cell-based; details: for Percent Inhibition of Proliferation / reversal of inhibitory activity by exogenous IL-2: mouse T cells; for reversal of inhibitory activity by exogenous IL-2: exogenous IL-2 (50 units/ml)
Source text: Biological activity as a immunosupressant can be measured in terms of inhibition of T-cell proliferation.

[1] = system: heterotopic heart allografts; details: rats given heterotopic heart allografts, cited from earlier work
immune response = details: rats; cited from earlier work
[2] = system: heart, kidney, bowel, pancreas or other transplantation; details: in combination with Cyclosporin A; cited from earlier work

COC1CC2CCC(C)C(O)(O2)C(=O)C(=O)N2CCCCC2C(=O)OC(C(C)CC2CCC(O)C(OC)C2)CC(=O)C(C)/C=C(\C)C(O)C(O)C(=O)C(C)CC(C)/C=C/C=C/C=C/1C (centres unmarked) [29-desmethyl-rapamycin, 29-desmethyl rapamycin]
Percent Inhibition of Proliferation (mouse T cells; 0.001 μM, ionomycin + PMA): 7% | Percent Inhibition of Proliferation (mouse T cells; 0.01 μM, ionomycin + PMA): 32% | Percent Inhibition of Proliferation (mouse T cells; 0.12 μM, ionomycin + PMA): 49% | Percent Inhibition of Proliferation (mouse T cells; 1.2 μM, ionomycin + PMA): 59% | Percent Inhibition of Proliferation (mouse T cells; 11.2 μM, ionomycin + PMA): 88% | reversal of inhibitory activity by exogenous IL-2 (mouse T cells; ionomycin + PMA): not reversed by exogenous IL-2 | inhibition of proliferation of mouse T cells (qualitative) (mouse T cells; ionomycin + PMA): found to inhibit the proliferation of mouse T cells

CO[C@H]1C[C@@H]2CC[C@@H](C)[C@@](O)(O2)C(=O)C(=O)N2CCCC[C@H]2C(=O)O[C@H]([C@H](C)C[C@@H]2CC[C@@H](O)[C@H](OC)C2)CC(=O)[C@H](C)/C=C(\C)[C@@H](O)[C@@H](OC)C(=O)[C@H](C)C[C@H](C)/C=C/C=C/C=C/1C [rapamycin]
toxicity ([1]; compared with what would be anticipated with FK-506): less toxicity was said to be experienced than would be anticipated with FK-506 | immunosuppression in heart allograft recipients [1]: immunosuppressive in rats given heterotopic heart allografts | inhibition of the response to allergic encephalomyelitis, adjuvant-induced arthritis and antibody production (immune response): inhibiting the response to allergic encephalomyelitis,adjuvant-induced arthritis and antibody production in rats | inhibition at 1.1 µM (mouse T cells; Mus musculus, T-cell, read-out: inhibited the proliferation): 65% | reversal of inhibitory activity by exogenous IL-2 (mouse T cells; ionomycin + PMA): not reversed by exogenous IL-2 | effect on amount of Cyclosporin A required [2]: reducing the amount of Cyclosporin A required to produce its immunosupressive effect | effect on nephrotoxicity of Cyclosporin A [2]: effectively reducing the nephrotoxicity inherent in treatment with Cyclosporin A
